One assay has as its target T1, Aurora Kinase 1 (Homo sapiens, UniProt Q96GD4).
T1 construct: endogenous in cells; host or cells: HT29 colon carcinoma cells
Put plainly: capture ELISA measuring Aurora Kinase 1 autophosphorylation in HT29 colon carcinoma cells. It is filed as cell-based. The conditions noted are these: HT29 cells synchronized for 24 hours, compound treatment 2 hours. Here is the method: To determine the ability of compounds to inhibit Aurora Kinase 1 activity in cells, a capture ELISA measuring Aurora Kinase 1 autophosphorylation was developed in HT29 colon carcinoma cells (Yasui Y, et al 2004). Briefly, 15,000 cells/well were seeded in a 96-well collagen coated plates in RPMI+10% FBS and incubated at 37° C. in 5% CO2 overnight. The following day, the cells were treated with 166 nM nacadazole compounds for 24 hours at 37° C. Synchronized cells were further treated with compounds for 2 hours. Compound dilutions were prepared from 0.1 mM DMSO stocks such that 1.1 μL of each dilution was added to obtain a final concentration ranging from 10 μM to 13 nM in one-third log steps. Following compound treatment, plates were centrifuged at 1000 rpm for 2 minutes and washed twice with 100 μL of cold sterile TBS. Cells were then lysed (100 μL of 150 mM NaCl, 20 mM Tris, pH 7.5, 1 mM EDTA, 1 mM EGTA, 1% Triton-x-100 plus protease and phosphatase inhibitors) by shaking at 4° C. for 1 hour. Cell lysates were transferred to plates pre-coated with anti-phospho mAur1 (Rockland, 600-401-677) and blocked with 5% blocker A in TBS from Meso Scale Discovery. After incubating for 1 hour at RT, plates were washed with 300 μL of TBST for a total of three times. The supernatant was removed and replaced with 50 μL of diluted primary antibody (anti-Aurora Kinase 1, Pharmingen, 611083) at 1:1000 in 2% blocker A in TBS and incubated at room temperature for 1 hour. The antibody buffer was removed from each well and washed three times with 300 μL of cold TBS-T ([…] Tris pH 8.0, 138 mM NaCl, 2.7 mM KCL, 0.05% Tween 20). The wash buffer was replaced with 50 μL of secondary antibody (Sulfa TAG anti-mouse, Meso Scale Discovery) at 1:1000 in 2% blocker A and incubated at room temperature for 1 hour. For the final readout with the Sector 6000, 150 μL of reading buffer T was added and the plates were read immediately.
For orientation: An ELISA detects its analyte on a solid surface through an enzyme-linked reagent.

For assay [1], the target named is T2, murine Aurora Kinase 1 (mAur1) (Mus musculus, UniProt O70126).
T2 construct: recombinant, GST-tagged mAur 1 (amino acids 67-345) that was co-expressed with human INCENP; GST; made in house
T2 sequence (O70126 67-345): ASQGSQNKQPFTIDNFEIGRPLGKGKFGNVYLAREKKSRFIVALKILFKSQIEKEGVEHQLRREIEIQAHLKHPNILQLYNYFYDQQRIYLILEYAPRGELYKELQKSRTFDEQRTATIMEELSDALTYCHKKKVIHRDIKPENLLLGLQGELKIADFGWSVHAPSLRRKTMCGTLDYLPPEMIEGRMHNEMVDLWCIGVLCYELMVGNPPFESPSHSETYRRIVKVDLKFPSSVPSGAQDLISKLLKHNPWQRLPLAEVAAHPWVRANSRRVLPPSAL
T2 sequence (Q9NQS7 704-918 partner): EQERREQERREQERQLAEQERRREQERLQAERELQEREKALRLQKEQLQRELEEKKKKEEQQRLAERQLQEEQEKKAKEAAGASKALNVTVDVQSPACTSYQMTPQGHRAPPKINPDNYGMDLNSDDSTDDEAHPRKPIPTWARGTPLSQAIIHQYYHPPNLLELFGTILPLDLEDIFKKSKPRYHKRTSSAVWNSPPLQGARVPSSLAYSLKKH
In words: murine Aurora Kinase 1 (mAur1) biochemical Scintillation Proximity Assay. The conditions noted are these: SPA, biotinylated Peptide 830, 1 μM ATP, 12 nM GST-tagged mAur 1 co-expressed with human INCENP. The essentials: (§1)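 SPA with biotinylated Peptide 830 (1 μM), 1 μM cold ATP plus 0.1 μCi ^33P-ATP, in 25 mM HEPES pH 7.5, 1 mM MnCl2/MgCl2, 1 mM DTT. Enzymes: GST-mAur1 (aa 67-345) co-expressed with human INCENP (704-919), 12 nM; His-mAur2 (aa 98-395), 20 nM. Eight-point 1:5 dose curves, 1-2 h at 25° C, 1% DMSO; IC50 from curves.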

For assay [2], the target named is T3, murine Aurora Kinase 2 (mAur2) (Mus musculus, UniProt P97477).
T3 construct: N-terminal His-tagged mAur2 (amino acids 98-395; DRT, Protein Sciences); His (N); made in house
T3 sequence (P97477 98-395): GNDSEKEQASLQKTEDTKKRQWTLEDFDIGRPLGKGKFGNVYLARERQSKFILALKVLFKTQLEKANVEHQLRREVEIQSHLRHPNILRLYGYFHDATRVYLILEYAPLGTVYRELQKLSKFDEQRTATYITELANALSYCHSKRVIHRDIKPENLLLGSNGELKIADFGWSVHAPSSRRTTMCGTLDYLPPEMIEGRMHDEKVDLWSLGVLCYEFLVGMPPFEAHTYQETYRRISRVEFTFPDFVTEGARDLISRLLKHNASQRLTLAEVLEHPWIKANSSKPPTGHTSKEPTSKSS
In words: murine Aurora Kinase 2 (mAur2) biochemical Scintillation Proximity Assay. The conditions noted are these: SPA, biotinylated Peptide 830, 1 μM ATP, 20 nM His-tagged mAur2. In a few lines:
as §1

Drawing on patent US8338594B2, “Pyrrolotriazine derivatives useful for treating cancer through inhibition of aurora kinase” (Bayer HealthCare LLC, priority 2005, dated 2012), this text covers IC50 for one compound.

T1 sequence (Q96GD4 whole entry): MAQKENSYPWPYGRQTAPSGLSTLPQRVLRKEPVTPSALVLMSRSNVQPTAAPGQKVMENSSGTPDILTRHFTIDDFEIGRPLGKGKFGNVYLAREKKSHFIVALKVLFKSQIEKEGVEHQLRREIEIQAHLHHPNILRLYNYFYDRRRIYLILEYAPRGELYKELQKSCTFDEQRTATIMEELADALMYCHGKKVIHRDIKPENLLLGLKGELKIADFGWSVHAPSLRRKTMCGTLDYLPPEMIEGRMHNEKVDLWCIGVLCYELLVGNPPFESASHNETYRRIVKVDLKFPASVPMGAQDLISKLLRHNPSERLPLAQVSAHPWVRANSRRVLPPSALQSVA

The IC50 is the concentration that gives 50% inhibition. Low values mean greater potency in that assay, high ones weaker potency in that assay. With `CNC(=O)c1cn2ncnc(N)c2c1-c1ccc(Nc2nc3ccc(Oc4ccccc4)c(F)c3[nH]2)cc1` [Example 102, 4-amino-5-{4-[(7-fluoro-6-phenoxy-1H-benzimidazol-2-yl)amino]phenyl}-N-methylpyrrolo[2,1-f][1,2,4]triazine-6-carboxamide], the results for the IC50 (against Aurora Kinase 1; in assay [1]; in assay [2]) were less than 1000 nM, less than 100 nM and less than 100 nM, respectively.
